Results taken from publication PMC12369846, “Structural Insights into Isovaleryl-Coenzyme A Dehydrogenase: Mechanisms of Substrate Specificity and Implications of Isovaleric Acidemia-Associated Mutations” (Research, 2025).
Where a chain is given by its changes, count along the chain named. Names and notes keep the numbering of the source. Each block holds one molecule with its values, some of them ahead of it.

Assays:
[1] = target: T1, human IVD (isovaleryl-CoA dehydrogenase) (Homo sapiens, UniProt P26440); experiment: cryo-EM structure; assay type: binding; conditions: noncovalent cofactor, 4 FAD per tetramer; FAD added to buffer; pH 7.4; 2.55 Å
T1 construct: residues 33-426 (transit peptide removed), N-terminal 8xHis tag, pET-28a, E. coli BL21(DE3)
T1 sequence (P26440 33-426): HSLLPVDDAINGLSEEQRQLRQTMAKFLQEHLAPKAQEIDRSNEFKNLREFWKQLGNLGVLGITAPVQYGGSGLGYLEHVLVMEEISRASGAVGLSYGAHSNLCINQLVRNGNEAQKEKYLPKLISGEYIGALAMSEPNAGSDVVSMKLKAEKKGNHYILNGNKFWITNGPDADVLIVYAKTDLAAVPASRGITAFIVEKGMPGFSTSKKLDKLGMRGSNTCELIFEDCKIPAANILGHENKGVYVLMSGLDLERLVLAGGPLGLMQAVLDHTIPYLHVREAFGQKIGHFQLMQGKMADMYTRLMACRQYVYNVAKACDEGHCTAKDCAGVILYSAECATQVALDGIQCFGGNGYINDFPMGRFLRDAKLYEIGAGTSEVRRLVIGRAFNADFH

[2] = target: T2, human IVD (isovaleryl-CoA dehydrogenase) (Homo sapiens, UniProt P26440, E286A); experiment: surface plasmon resonance; assay type: binding; conditions: read-out: KDapp
T2 construct: residues 33-426 (transit peptide removed), N-terminal 8xHis tag, pET-28a, E. coli BL21(DE3)
T2 sequence (P26440 33-426 E286A): T1 sequence (P26440 33-426) with E254A

[3] = target: T3, Isovaleryl-CoA dehydrogenase (IVD), human, wild type, residues 33-426 (human), P26440; experiment: cryo-EM structure; purified IVD from SEC in 50 mM tris-HCl pH 7.4, 150 mM NaCl with added FAD; no acyl-CoA; 2.55 Å; conditions: remark: other sources report otherwise
T3 chain: T1 sequence (P26440 33-426)

[4] = target: the molecule itself; experiment: cryo-EM structure; purified IVD E286A incubated with isovaleryl-CoA or butyryl-CoA at 37 °C for 15 min, FAD bound; 3.35 and 2.91 Å

Molecule: Cc1cc2nc3c(=O)[nH]c(=O)nc-3n(C[C@H](O)[C@H](O)[C@H](O)COP(=O)(O)OP(=O)(O)OC[C@H]3O[C@@H](n4cnc5c(N)ncnc54)[C@H](O)[C@@H]3O)c2cc1C [FAD]
cryo-EM structure [1]: resolved in the form of only combining with FAD molecules

B1: Isovaleryl-CoA dehydrogenase (IVD), human, wild type, residues 33-426, P26440 33-426 (enzyme)
chain: T1 sequence (P26440 33-426)
stoichiometry N [3]: 4

B2: Isovaleryl-CoA dehydrogenase (IVD), human, E286A mutant, residues 33-426 (enzyme, UniProt P26440 33-426, looked up)
chain: T1 sequence (P26440 33-426) with E254A
notes: human isovaleryl-CoA dehydrogenase (IVD), residues 33 to 426, catalytic-base mutant made by PCR on the WT plasmid; Used for the cryo-EM structures with isovaleryl-CoA and butyryl-CoA; also called IVD E286A; source: E. coli BL21 (DE3), purified (Ni-NTA, SEC on Superdex 200)
binding result [4]: binds

Continued, values first:

Kd [2]: 494 nM
Molecule: CCCC(=O)SCCNC(=O)CCNC(=O)[C@H](O)C(C)(C)COP(=O)(O)OP(=O)(O)OC[C@H]1O[C@@H](n2cnc3c(N)ncnc32)[C@H](O)[C@@H]1OP(=O)(O)O [butyryl-CoA]

Kd [2]: 848 nM
Molecule: CC(C)CC(=O)SCCNC(=O)CCNC(=O)[C@H](O)C(C)(C)COP(=O)(O)OP(=O)(O)OC[C@H]1O[C@@H](n2cnc3c(N)ncnc32)[C@H](O)[C@@H]1OP(=O)(O)O [isovaleryl-CoA]
